# Data taken from patent publication EP4623911A1, “PI4KB INHIBITORS FOR THE TREATMENT OF FATTY LIVER DISEASE” (ETH Zurich, priority 2024, dated 2025).
# Tested on: ATGL
# Test: ATGL protein quantification via immunoblot in HEK293T cell type
# Type: cell-based, human
# Details: Golgi Ptdlns4P depleted by UCB9608, then glucose deprivation
# Experimental: HEK293T and HEK293-AAV cell types were cultured in DMEM (high glucose) with 10% FBS and 1% Pen/Strep. HEK293-AAV cell type was used for imaging whereas HEK293T cells were adopted for the rest of the work. To overexpress EGFP-P4M, EGFP-SACM1L, EGFP-SACM1LK2A, ATGL-FLAG, ATGL-HA, ATGLK0-HA and FBXW8-FLAG in the HEK cells, Lipofectamine 2000 was used to deliver these plasmids for 24 h expression at 60-80% cell confluence according to the manufacturer's instructions, followed by specific treatments based on experimental designs. To image LDs abundance, HEK293-AAV cell type was induced by 200 µM oleic acid (OA, 01008 from Sigma) conjugated to bovine serum albumin (BSA, A6003 from Sigma) to generate LDs for 24 h prior to 4% PFA fixation. Afterwards, cells were stained by BODIPY 493/503 and Hoechst 33342 for LDs and nuclei labelling, respectively. In other conditions, HEK cells were not treated with OA containing medium. […]
# Adipose depots, liver pieces, differentiated iBAs, HepG2, HEK293T and HEK293-AAV cell types were homogenized in RIPA buffer (50 mM Tris-HCl pH 7.4, 150 mM NaCl, 2 mM EDTA, 1.0% Triton X100, 0.5% sodium deoxycholate) with protease inhibitors (Complete, Roche) and phosphatase inhibitors (Halt phosphatase inhibitor cocktail, ThermoFisher). […] The concentration of WCE was determined by DC Protein Assay (Bio-Rad). […]
compound,measurement,value
COc1ccc(NC(=O)N2CCN(c3nc(N)nc4c3cnn4C)[C@@H](C)C2)c(C)c1 [UCB9608],ATGL response to glucose deprivation,loss of ATGL regulation
